Test results reported in patent publication US10669242B2 (priority 2016, dated 2020).

The compounds below were run against T1, recombinant glucosyltransferase domain of C. difficile Toxin B/TcdB (Clostridioides difficile, UniProt P18177) (assay: biochemical).
T1 construct: 6-His (C); purchased R&D Systems 6246-GT
T1 sequence (P18177 1-543): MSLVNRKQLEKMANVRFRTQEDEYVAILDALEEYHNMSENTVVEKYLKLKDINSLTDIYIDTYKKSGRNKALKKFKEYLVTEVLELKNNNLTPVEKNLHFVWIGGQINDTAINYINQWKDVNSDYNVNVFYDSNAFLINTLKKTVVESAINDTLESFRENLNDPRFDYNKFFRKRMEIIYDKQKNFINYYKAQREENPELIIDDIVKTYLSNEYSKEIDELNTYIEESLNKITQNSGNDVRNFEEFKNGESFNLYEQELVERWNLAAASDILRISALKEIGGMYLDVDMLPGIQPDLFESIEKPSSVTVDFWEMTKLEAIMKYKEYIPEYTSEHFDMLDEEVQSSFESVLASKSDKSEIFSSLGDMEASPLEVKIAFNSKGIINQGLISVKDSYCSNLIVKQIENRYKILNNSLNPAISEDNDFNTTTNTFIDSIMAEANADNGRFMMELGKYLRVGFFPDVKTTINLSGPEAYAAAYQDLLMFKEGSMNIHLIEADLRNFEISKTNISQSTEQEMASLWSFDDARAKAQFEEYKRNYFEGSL

SMILES	IC50
Cc1cccnc1NC(=O)c1ccc(CN2C(=O)c3ccc(Cl)cc3NC(=O)[C@H]2Cc2cccnc2)cc1 [Example 4k, (R)-4-((8-chloro-2,5-dioxo-3-(pyridin-3-ylmethyl)-2,3-dihydro-1H-benzo[e][1,4]diazepin-4(5H)-yl)methyl)-N-(3-methylpyridin-2-yl)benzamide]	100 to 999 nM
COc1ccc2c(c1)NC(=O)[C@@H](Cc1ccc(Cl)c(Cl)c1)N(Cc1ccc(C(=O)Nc3ccccn3)cc1)C2=O [Example 4l, (R)-4-((3-(3,4-dichlorobenzyl)-8-methoxy-2,5-dioxo-2,3-dihydro-1H-benzo[e][1,4]diazepin-4(5H)-yl)methyl)-N-(pyridin-2-yl)benzamide]	< 100 nM
CN(C(=O)c1ccc(CN2C(=O)c3ccc(Cl)cc3NC(=O)[C@H]2Cc2cccnc2)cc1)c1ccccn1 [Example 4m, (R)-4-((8-chloro-2,5-dioxo-3-(pyridin-3-ylmethyl)-2,3-dihydro-1H-benzo[e][1,4]diazepin-4(5H)-yl)methyl)-N-methyl-N-(pyridin-2-yl)benzamide]	100 to 999 nM
Cc1ccc(NC(=O)c2ccc(CN3C(=O)c4ccc(Cl)cc4NC(=O)[C@H]3Cc3cccnc3)cc2)nc1 [Example 4n, (R)-4-((8-chloro-2,5-dioxo-3-(pyridin-3-ylmethyl)-2,3-dihydro-1H-benzo[e][1,4]diazepin-4(5H)-yl)methyl)-N-(5-methylpyridin-2-yl)benzamide]	< 100 nM
Cc1cccc(NC(=O)c2ccc(CN3C(=O)c4ccc(Cl)cc4NC(=O)[C@H]3Cc3cccnc3)cc2)n1 [Example 4o, (R)-4-((8-chloro-2,5-dioxo-3-(pyridin-3-ylmethyl)-2,3-dihydro-1H-benzo[e][1,4]diazepin-4(5H)-yl)methyl)-N-(6-methylpyridin-2-yl)benzamide]	10000 to 35000 nM
COc1ccc2c(c1)NC(=O)[C@@H](Cc1cccnc1)N(Cc1ccc(C(=O)Nc3ccccn3)cc1)C2=O [Example 4p, (R)-4-((8-methoxy-2,5-dioxo-3-(pyridin-3-ylmethyl)-2,3-dihydro-1H-benzo[e][1,4]diazepin-4(5H)-yl)methyl)-N-(pyridin-2-yl)benzamide]	< 100 nM
O=C(Nc1ccccn1)c1ccc(CN2C(=O)c3ccc(F)cc3NC(=O)[C@H]2Cc2ccc(Cl)c(Cl)c2)cc1 [Example 4q, (R)-4-((3-(3,4-dichlorobenzyl)-8-fluoro-2,5-dioxo-2,3-dihydro-1H-benzo[e][1,4]diazepin-4(5H)-yl)methyl)-N-(pyridin-2-yl)benzamide]	100 to 999 nM
O=C(Nc1cc(Cl)ccn1)c1ccc(CN2C(=O)c3ccc(Cl)cc3NC(=O)[C@H]2Cc2cccnc2)cc1 [Example 4r, (R)-4-((8-chloro-2,5-dioxo-3-(pyridin-3-ylmethyl)-2,3-dihydro-1H-benzo[e][1,4]diazepin-4(5H)-yl)methyl)-N-(4-chloropyridin-2-yl)benzamide]	< 100 nM
Cc1ccnc(NC(=O)c2ccc(CN3C(=O)c4ccc(Cl)cc4NC(=O)[C@H]3Cc3cccnc3)cc2)c1 [Example 4s, (R)-4-((8-chloro-2,5-dioxo-3-(pyridin-3-ylmethyl)-2,3-dihydro-1H-benzo[e][1,4]diazepin-4(5H)-yl)methyl)-N-(4-methylpyridin-2-yl)benzamide]	< 100 nM
O=C(Nc1ccncn1)c1ccc(CN2C(=O)c3ccc(Cl)cc3NC(=O)[C@H]2Cc2cccnc2)cc1 [Example 4t, (R)-4-((8-chloro-2,5-dioxo-3-(pyridin-3-ylmethyl)-2,3-dihydro-1H-benzo[e][1,4]diazepin-4(5H)-yl)methyl)-N-(pyrimidin-4-yl)benzamide]	< 100 nM
O=C(Nc1ccccn1)c1ccc(CN2C(=O)c3ccc(Cl)cc3NC(=O)[C@H]2Cc2ccncc2)cc1 [Example 4u, (R)-4-((8-chloro-2,5-dioxo-3-(pyridin-4-ylmethyl)-2,3-dihydro-1H-benzo[e][1,4]diazepin-4(5H)-yl)methyl)-N-(pyridin-2-yl)benzamide]	100 to 999 nM
O=C(Nc1ccccn1)c1ccc(CN2C(=O)c3ccc(Cl)cc3NC(=O)[C@H]2Cc2ccccn2)cc1 [Example 4v, (R)-4-((8-chloro-2,5-dioxo-3-(pyridin-2-ylmethyl)-2,3-dihydro-1H-benzo[e][1,4]diazepin-4(5H)-yl)methyl)-N-(pyridin-2-yl)benzamide]	< 100 nM
O=C(Nc1ccccn1)c1ccc(CN2C(=O)c3ccc(Cl)cc3NC(=O)[C@H]2Cc2ccccc2Cl)cc1 [Example 4w, (R)-4-((8-chloro-3-(2-chlorobenzyl)-2,5-dioxo-2,3-dihydro-1H-benzo[e][1,4]diazepin-4(5H)-yl)methyl)-N-(pyridin-2-yl)benzamide]	< 100 nM
Cc1ccc(NC(=O)c2ccc(CN3C(=O)c4ccc(Cl)cc4NC(=O)[C@H]3Cc3ccccn3)cc2)nc1 [Example 4x, (R)-4-((8-chloro-2,5-dioxo-3-(pyridin-2-ylmethyl)-2,3-dihydro-1H-benzo[e][1,4]diazepin-4(5H)-yl)methyl)-N-(5-methylpyridin-2-yl)benzamide]	< 100 nM
C[C@@H]1C(=O)Nc2cc(Cl)ccc2C(=O)N1Cc1ccc(C(=O)N2CCc3cccnc32)cc1 [Example 4y, (R)-8-chloro-4-(4-(2,3-dihydro-1H-pyrrolo[2,3-b]pyridine-1-carbonyl)benzyl)-3-methyl-3,4-dihydro-1H-benzo[e][1,4]diazepine-2,5-dione]	< 100 nM
C[C@@H]1C(=O)Nc2cc(Cl)ccc2C(=O)N1Cc1ccc(C(=O)Nc2ccccn2)cc1 [Example 4z, (R)-4-((8-chloro-3-methyl-2,5-dioxo-2,3-dihydro-1H-benzo[e][1,4]diazepin-4(5H)-yl)methyl)-N-(pyridin-2-yl)benzamide]	< 100 nM
COc1cnc(NC(=O)c2ccc(CN3C(=O)c4ccc(Cl)cc4NC(=O)[C@H]3Cc3ccccn3)cc2)nc1 [Example 5a, (R)-4-((8-chloro-2,5-dioxo-3-(pyridin-2-ylmethyl)-2,3-dihydro-1H-benzo[e][1,4]diazepin-4(5H)-yl)methyl)-N-(5-methoxypyrimidin-2-yl)benzamide]	< 100 nM
O=C(Nc1ncccc1F)c1ccc(CN2C(=O)c3ccc(Cl)cc3NC(=O)[C@H]2Cc2ccccn2)cc1Cl [Example 5ac, (R)-2-chloro-4-((8-chloro-2,5-dioxo-3-(pyridin-2-ylmethyl)-2,3-dihydro-1H-benzo[e][1,4]diazepin-4(5H)-yl)methyl)-N-(3-fluoropyridin-2-yl)benzamide]	< 100 nM
Cc1cnc(NC(=O)[C@H]2CC[C@H](CN3C(=O)c4ccc(Cl)cc4NC(=O)[C@H]3Cc3ccccn3)CC2)nc1 [Example 5ad, (1R,4r)-4-(((R)-8-chloro-2,5-dioxo-3-(pyridin-2-ylmethyl)-2,3-dihydro-1H-benzo[e][1,4]diazepin-4(5H)-yl)methyl)-N-(5-methylpyrimidin-2-yl)cyclohexanecarboxamide]	< 100 nM
Cc1cnc(NC(=O)c2ccc(CN3C(=O)c4ccc(Cl)cc4NC(=O)[C@H]3Cc3ccccn3)cc2C)nc1 [Example 5ag, (R)-4-((8-chloro-2,5-dioxo-3-(pyridin-2-ylmethyl)-2,3-dihydro-1H-benzo[e][1,4]diazepin-4(5H)-yl)methyl)-2-methyl-N-(5-methylpyrimidin-2-yl)benzamide]	< 100 nM
O=C(Nc1ccc(F)cn1)c1ccc(CN2C(=O)c3ccc(Cl)cc3NC(=O)[C@H]2Cc2ccccn2)cc1Cl [Example 5ao, (R)-2-chloro-4-((8-chloro-2,5-dioxo-3-(pyridin-2-ylmethyl)-2,3-dihydro-1H-benzo[e][1,4]diazepin-4(5H)-yl)methyl)-N-(5-fluoropyridin-2-yl)benzamide]	< 100 nM
Cc1cc(CN2C(=O)c3ccc(Cl)cc3NC(=O)[C@H]2Cc2ccccn2)ccc1C(=O)Nc1ccc(F)cn1 [Example 5ap, (R)-4-((8-chloro-2,5-dioxo-3-(pyridin-2-ylmethyl)-2,3-dihydro-1H-benzo[e][1,4]diazepin-4(5H)-yl)methyl)-N-(5-fluoropyridin-2-yl)-2-methylbenzamide]	< 100 nM
COc1cc(CN2C(=O)c3ccc(Cl)cc3NC(=O)[C@H]2Cc2ccccn2)ccc1C(=O)Nc1ccc(F)cn1 [Example 5aq, (R)-4-((8-chloro-2,5-dioxo-3-(pyridin-2-ylmethyl)-2,3-dihydro-1H-benzo[e][1,4]diazepin-4(5H)-yl)methyl)-N-(5-fluoropyridin-2-yl)-2-methoxybenzamide]	< 100 nM
C[C@@H]1C(=O)Nc2cc(Cl)ccc2C(=O)N1Cc1ccc(C(=O)Nc2ccc(C(F)(F)F)cn2)c(Br)c1 [Example 5ar, (R)-2-bromo-4-((8-chloro-3-methyl-2,5-dioxo-2,3-dihydro-1H-benzo[e][1,4]diazepin-4(5H)-yl)methyl)-N-(5-(trifluoromethyl)pyridin-2-yl)benzamide]	1000 to 10000 nM
Cc1cnc(NC(=O)c2ccc(CN3C(=O)c4ccc(Cl)cc4NC(=O)[C@H]3Cc3ccccn3)cc2Cl)nc1 [Example 5as, (R)-2-chloro-4-((8-chloro-2,5-dioxo-3-(pyridin-2-ylmethyl)-2,3-dihydro-1H-benzo[e][1,4]diazepin-4(5H)-yl)methyl)-N-(5-methylpyrimidin-2-yl)benzamide]	< 100 nM
Cc1cc(CN2C(=O)c3ccc(Cl)cc3NC(=O)[C@H]2Cc2ccccn2)ccc1C(=O)Nc1ccc(C#N)cn1 [Example 5at, (R)-4-((8-chloro-2,5-dioxo-3-(pyridin-2-ylmethyl)-2,3-dihydro-1H-benzo[e][1,4]diazepin-4(5H)-yl)methyl)-N-(5-cyanopyridin-2-yl)-2-methylbenzamide]	< 100 nM
N#Cc1ccc(NC(=O)c2ccc(CN3C(=O)c4ccc(Cl)cc4NC(=O)[C@H]3Cc3ccccn3)cc2Cl)nc1 [Example 5au, (R)-2-chloro-4-((8-chloro-2,5-dioxo-3-(pyridin-2-ylmethyl)-2,3-dihydro-1H-benzo[e][1,4]diazepin-4(5H)-yl)methyl)-N-(5-cyanopyridin-2-yl)benzamide]	< 100 nM
CS(=O)(=O)c1ccc(NC(=O)c2ccc(CN3C(=O)c4ccc(Cl)cc4NC(=O)[C@H]3Cc3ccccn3)cc2Cl)nc1 [Example 5av, (R)-2-chloro-4-((8-chloro-2,5-dioxo-3-(pyridin-2-ylmethyl)-2,3-dihydro-1H-benzo[e][1,4]diazepin-4(5H)-yl)methyl)-N-(5-(methylsulfonyl)pyridin-2-yl)benzamide]	< 100 nM
